Experimental data taken from patent US20230203059A1, “MACROCYCLIC JAK INHIBITOR AND USES THEREOF” (Biopolar Hongye (Guangdong) Pharmaceutical Co. Ltd., priority 2020, published 2023).

Columns and labels:
Assay type in all cases: biochemical
[1] = biological target: JAK1 (Homo sapiens, UniProt P23458); experiment: JAK kinase activity, homogeneous time-resolved fluorescence (JAK1 reaction system); settings: ATP 2 μM, JAK1 protein 0.2 ng/μL; read-out: JAK 1 activity
How it was run: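 Kinase activity read as the 665 nm/615 nm time-resolved fluorescence ratio (320 nm excitation) after EDTA-containing antibody and XL-615 addition. Reaction ran 1 h at pH 7.0 (Hepes, MgCl2, DTT) with 0.2 ng/μL JAK1 and ATP at 2 μM. IC50 derived by Hill-slope fit.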

[2] = biological target: JAK2 (Homo sapiens, UniProt O60674); experiment: JAK kinase activity, homogeneous time-resolved fluorescence (JAK2 reaction system); settings: ATP 2 μM, JAK2 protein 0.01 ng/μL
How it was run: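 IC50 derived by Hill-equation fit of the 665/615 nm time-resolved fluorescence ratio after EDTA-containing detection mix with anti-phosphosubstrate antibody. Preceding 1 h reaction contained 2 μM ATP, 0.01 ng/μL JAK2, substrate, 50 mM Hepes pH 7.0, 5 mM MgCl2, 1 mM DTT.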

[3] = biological target: T1, JAK3 (Homo sapiens, UniProt P52333); experiment: JAK kinase activity, homogeneous time-resolved fluorescence (JAK3 reaction system); settings: ATP 2 μM, JAK3 protein 0.04 ng/μL; read-out: JAK 3 activity
T1 sequence (P52333 1-1124): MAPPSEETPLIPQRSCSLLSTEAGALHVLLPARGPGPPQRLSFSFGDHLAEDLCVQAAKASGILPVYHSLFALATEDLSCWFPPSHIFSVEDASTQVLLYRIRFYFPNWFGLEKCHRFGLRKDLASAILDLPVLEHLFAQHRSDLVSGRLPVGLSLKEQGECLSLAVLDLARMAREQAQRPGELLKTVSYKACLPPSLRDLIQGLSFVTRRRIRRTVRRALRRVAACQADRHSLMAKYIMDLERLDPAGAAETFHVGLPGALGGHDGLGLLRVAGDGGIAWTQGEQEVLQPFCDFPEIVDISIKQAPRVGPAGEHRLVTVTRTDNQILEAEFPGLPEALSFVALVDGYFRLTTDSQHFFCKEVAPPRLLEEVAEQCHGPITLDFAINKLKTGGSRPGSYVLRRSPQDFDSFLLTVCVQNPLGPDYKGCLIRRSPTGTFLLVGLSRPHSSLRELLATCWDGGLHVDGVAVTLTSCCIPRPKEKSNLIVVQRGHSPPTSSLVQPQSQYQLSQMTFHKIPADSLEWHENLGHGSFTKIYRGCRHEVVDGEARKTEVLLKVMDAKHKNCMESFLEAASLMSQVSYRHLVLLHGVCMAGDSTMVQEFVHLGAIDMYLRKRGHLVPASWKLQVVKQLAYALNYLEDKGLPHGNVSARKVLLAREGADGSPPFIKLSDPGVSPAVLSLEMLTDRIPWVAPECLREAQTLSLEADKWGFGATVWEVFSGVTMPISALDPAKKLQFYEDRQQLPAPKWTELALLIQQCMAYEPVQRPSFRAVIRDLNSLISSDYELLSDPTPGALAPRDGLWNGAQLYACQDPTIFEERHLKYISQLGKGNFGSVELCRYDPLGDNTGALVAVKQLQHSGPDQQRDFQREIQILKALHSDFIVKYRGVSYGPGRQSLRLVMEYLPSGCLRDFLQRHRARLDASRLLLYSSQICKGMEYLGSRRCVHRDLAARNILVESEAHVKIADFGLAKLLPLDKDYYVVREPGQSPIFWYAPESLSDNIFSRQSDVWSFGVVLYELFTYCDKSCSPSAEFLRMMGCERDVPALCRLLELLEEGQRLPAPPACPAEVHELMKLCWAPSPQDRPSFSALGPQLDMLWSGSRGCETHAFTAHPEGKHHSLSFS

[4] = biological target: TYK2 (Homo sapiens, UniProt P29597); experiment: JAK kinase activity, homogeneous time-resolved fluorescence (TYK2 reaction system); settings: ATP 2 μM, TYK2 protein 0.2 ng/μL; read-out: TYK 2 activity
How it was run: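 Activity read as the 665 nm/615 nm ratio after adding EDTA-containing detection mix with anti-phospho-substrate antibody and XL-615. Beforehand, 0.2 ng/μL TYK2, 2 μM ATP, substrate and compound reacted 1 h in pH 7.0 Hepes buffer with MgCl2 and DTT. IC50 fitted with Hill-slope equation.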

Sequence of JAK2 (O60674 whole entry): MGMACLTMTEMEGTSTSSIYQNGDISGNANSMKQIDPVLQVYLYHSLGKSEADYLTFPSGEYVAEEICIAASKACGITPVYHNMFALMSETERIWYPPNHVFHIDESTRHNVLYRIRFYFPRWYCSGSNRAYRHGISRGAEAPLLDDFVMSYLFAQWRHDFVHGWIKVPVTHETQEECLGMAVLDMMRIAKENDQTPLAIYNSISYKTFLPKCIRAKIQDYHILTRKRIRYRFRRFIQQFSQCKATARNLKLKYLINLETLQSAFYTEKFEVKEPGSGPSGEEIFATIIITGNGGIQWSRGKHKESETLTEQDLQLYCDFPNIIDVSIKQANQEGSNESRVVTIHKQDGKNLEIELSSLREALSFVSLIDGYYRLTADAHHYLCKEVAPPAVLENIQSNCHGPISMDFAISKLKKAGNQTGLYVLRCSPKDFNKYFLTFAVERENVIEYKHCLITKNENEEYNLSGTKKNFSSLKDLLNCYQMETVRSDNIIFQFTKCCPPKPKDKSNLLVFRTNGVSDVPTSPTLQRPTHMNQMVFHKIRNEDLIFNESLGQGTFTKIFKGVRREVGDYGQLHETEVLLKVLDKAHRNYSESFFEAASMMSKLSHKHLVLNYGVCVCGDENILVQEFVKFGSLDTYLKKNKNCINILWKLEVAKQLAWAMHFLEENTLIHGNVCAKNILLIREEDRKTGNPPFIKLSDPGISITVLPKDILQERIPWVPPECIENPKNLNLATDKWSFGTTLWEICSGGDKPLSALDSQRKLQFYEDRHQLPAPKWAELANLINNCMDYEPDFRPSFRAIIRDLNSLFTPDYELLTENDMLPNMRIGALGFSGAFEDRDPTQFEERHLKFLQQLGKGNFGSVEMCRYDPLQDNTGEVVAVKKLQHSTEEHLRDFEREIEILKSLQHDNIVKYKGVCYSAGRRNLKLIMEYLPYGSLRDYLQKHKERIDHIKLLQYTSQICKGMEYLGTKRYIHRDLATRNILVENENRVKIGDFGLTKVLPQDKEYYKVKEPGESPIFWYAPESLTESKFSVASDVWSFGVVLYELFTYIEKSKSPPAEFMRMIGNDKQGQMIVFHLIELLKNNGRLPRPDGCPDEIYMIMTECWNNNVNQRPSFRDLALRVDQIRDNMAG
Sequence of JAK1 (P23458 whole entry): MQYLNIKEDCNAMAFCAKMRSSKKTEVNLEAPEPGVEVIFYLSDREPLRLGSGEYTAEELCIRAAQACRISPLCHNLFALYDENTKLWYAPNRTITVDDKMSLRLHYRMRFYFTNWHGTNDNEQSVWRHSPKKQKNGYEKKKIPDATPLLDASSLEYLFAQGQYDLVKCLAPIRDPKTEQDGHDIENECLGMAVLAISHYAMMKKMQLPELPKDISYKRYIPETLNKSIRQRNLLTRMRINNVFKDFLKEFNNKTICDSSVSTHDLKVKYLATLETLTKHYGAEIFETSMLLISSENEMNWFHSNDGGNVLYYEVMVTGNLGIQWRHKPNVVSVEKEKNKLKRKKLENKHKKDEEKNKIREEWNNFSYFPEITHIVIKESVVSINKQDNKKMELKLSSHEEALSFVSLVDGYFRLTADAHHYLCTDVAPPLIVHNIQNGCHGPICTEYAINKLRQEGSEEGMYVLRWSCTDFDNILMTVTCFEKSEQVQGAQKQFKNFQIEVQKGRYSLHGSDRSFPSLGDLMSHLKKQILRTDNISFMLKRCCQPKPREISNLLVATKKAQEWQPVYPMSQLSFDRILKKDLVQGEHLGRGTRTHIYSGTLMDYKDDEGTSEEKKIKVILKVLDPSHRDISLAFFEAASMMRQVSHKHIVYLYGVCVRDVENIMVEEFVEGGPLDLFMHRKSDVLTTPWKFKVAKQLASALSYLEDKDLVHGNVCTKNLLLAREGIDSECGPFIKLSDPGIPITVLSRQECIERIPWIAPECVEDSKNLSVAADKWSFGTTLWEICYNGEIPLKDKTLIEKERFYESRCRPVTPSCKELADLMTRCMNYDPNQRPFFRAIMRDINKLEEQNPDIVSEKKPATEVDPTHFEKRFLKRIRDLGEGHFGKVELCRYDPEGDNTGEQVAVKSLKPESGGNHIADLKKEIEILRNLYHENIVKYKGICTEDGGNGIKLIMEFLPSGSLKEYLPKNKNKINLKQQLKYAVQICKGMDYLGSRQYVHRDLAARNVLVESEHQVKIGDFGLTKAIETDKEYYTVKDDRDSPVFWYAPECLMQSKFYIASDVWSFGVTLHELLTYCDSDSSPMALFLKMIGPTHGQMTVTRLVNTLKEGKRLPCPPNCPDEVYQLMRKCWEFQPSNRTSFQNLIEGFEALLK
Sequence of TYK2 (P29597 whole entry): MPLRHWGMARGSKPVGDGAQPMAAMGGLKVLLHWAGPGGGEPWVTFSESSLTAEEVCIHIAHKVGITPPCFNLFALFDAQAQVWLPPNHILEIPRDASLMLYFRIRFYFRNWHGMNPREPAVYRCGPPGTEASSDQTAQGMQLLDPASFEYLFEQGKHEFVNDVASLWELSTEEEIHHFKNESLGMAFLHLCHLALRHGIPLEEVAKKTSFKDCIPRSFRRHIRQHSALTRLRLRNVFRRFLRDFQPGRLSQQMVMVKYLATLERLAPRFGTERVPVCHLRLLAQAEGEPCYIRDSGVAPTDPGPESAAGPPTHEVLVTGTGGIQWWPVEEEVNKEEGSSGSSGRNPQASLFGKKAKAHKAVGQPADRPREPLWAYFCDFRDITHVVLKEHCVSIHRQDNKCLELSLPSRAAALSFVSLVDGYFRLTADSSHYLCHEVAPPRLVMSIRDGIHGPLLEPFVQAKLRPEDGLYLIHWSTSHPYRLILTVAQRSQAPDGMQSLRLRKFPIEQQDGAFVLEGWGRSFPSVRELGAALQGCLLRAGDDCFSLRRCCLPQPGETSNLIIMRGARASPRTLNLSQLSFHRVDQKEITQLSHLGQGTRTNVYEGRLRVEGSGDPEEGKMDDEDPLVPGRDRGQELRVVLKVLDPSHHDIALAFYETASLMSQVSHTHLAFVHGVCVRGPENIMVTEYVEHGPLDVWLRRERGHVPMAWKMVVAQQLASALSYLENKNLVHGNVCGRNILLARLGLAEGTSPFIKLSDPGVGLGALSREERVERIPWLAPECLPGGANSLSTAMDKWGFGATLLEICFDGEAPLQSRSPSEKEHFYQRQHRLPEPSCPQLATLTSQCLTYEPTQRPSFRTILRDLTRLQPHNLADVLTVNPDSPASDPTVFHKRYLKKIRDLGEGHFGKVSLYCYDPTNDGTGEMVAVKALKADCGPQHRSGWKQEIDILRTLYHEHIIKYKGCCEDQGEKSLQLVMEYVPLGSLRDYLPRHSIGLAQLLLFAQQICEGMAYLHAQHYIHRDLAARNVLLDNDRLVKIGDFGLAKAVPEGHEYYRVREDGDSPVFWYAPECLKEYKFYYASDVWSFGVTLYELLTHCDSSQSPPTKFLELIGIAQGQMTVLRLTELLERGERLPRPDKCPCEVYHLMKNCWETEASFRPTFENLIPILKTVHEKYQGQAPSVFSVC

An IC50 [1] of 101 to 1000 nM, an IC50 [2] of 101 to 1000 nM and an IC50 [3] of 101 to 1000 nM were found for `O=C1NCCCCOCc2cc(ccc2C2CC2)Nc2nccc(n2)-c2ccc1cc2F` [Example 2, 1^2-fluoro-4^4-cyclopropyl-6-oxa-3,11-diaza-2 (4,2)-pyrimidina-1(1,4),4(1,3)-dibenzenacyclododecaphan-12-one] in this work. It also gave an IC50 [4] of 101 to 1000 nM.
An IC50 [1] of 1000 to 10000 nM, an IC50 [2] of 1000 to 10000 nM and an IC50 [3] of 1000 to 10000 nM were found for `O=C1NCCCCOCc2cc(ccc2OCC2COC2)Nc2nccc(n2)-c2ccc1cc2[N+](=O)[O-]` [Example 163, 1^2-nitro-4^4-(oxetan-3-ylmethoxy)-6-oxa-3,11-diaza-2(4,2)-pyrimidina-1(1,4),4(1,3)-dibenzenacyclo-dodecaphan-12-one] in this work. For the same molecule, the IC50 [4] was over 10000 nM.
An IC50 [1] of 101 to 1000 nM, an IC50 [2] of 101 to 1000 nM and an IC50 [3] of 11 to 100 nM were found for `Cc1cc2ccc1NC(=O)c1ccc(c(N)c1)-c1ccnc(n1)Nc1ccc(OC3CC3)c(c1)CO2` [Example 207, 1^2-amino-4^4-cyclopropoxy-7^3-meth-yl-6-oxa-3,8-diaza-2(4,2)-pyrimidina-1,7(1,4),4(1,3)-tribenzenacyclo-nonaphane-9-one] in this work. It also gave an IC50 [4] of 1000 to 10000 nM.
An IC50 [1] of 1000 to 10000 nM, an IC50 [2] of 101 to 1000 nM and an IC50 [3] of under 10 nM were found for `Nc1cc2ccc1-c1ccnc(n1)Nc1ccc(OC3CC3)c(c1)COCCCCNC2=O` [Example 74, 1^2-amino-4^4-cyclopropoxy-6-oxa-3,11-diaza-2(4,2)-pyrimidina-1(1,4),4(1,3)-dibenzenacyclododecaphan-12-one] in this work. The IC50 [4] was 1000 to 10000 nM.
An IC50 [1] of 1000 to 10000 nM, an IC50 [2] of 1000 to 10000 nM and an IC50 [3] of 101 to 1000 nM were found for `O=C1NCCCCOCc2cc(cc(F)c2F)Nc2nccc(n2)-c2ccc1cc2[N+](=O)[O-]` [Example 93, 4^4,4^5-difluoro-1^2-nitro-6-oxa-3,11-di-aza-2(4,2)-pyrimidina-1(1,4),4(1,3)-dibenzenacyclododecaphan-12-one] in this work. For the same molecule, the IC50 [4] was over 10000 nM.
An IC50 [1] of 1000 to 10000 nM, an IC50 [2] of 1000 to 10000 nM and an IC50 [3] of 101 to 1000 nM were found for `O=C1NCCCCOCc2cc(ccc2OCC2CC2)Nc2nccc(n2)-c2ccc1cc2[N+](=O)[O-]` [Example 111, 4^4-(cyclopropylmethoxy)-1^2-nitro-6-oxa-3,11-diaza-2(4,2)-pyrimidina-1(1,4),4(1,3)-dibenzenacyclo-dodecaphan-12-one] in this work. For the same molecule, the IC50 [4] was over 10000 nM.
An IC50 [1] of 1000 to 10000 nM, an IC50 [2] of 101 to 1000 nM and an IC50 [3] of 101 to 1000 nM were found for `CC(C)Oc1ccc2cc1COCCCCNC(=O)c1ccc(c([N+](=O)[O-])c1)-c1ccnc(n1)N2` [Example 64, 4^4-isopropoxy-1^2-nitro-6-oxa-3,11-diaza-2(4,2)-pyrimidina-1(1,4),4(1,3)-dibenzenacyclododecaphan-12-one] in this work. The IC50 [4] was over 10000 nM.
An IC50 [1] of 1000 to 10000 nM, an IC50 [2] of 101 to 1000 nM and an IC50 [3] of 11 to 100 nM were found for `Nc1cc2ccc1-c1ccnc(n1)Nc1ccc(OC3COC3)c(c1)COCCCCNC2=O` [Example 75, 1^2-amino-4^4-(oxetan-3-oxy)-6-oxa-3,11-diaza-2(4,2)-pyrimidina-1(1,4),4(1,3)-dibenzenacyclododecaphan-12-one] in this work. For the same molecule, the IC50 [4] was 1000 to 10000 nM.
An IC50 [1] of 1000 to 10000 nM, an IC50 [2] of 101 to 1000 nM and an IC50 [3] of 11 to 100 nM were found for `CC1CCNC(=O)c2ccc(c(N)c2)-c2ccnc(n2)Nc2ccc(Oc3cccnc3)c(c2)COC1` (stereo not shown) [Example 130, 1^2-amino-8-methyl-4^4-(pyridin-3-oxy)-6-oxa-3,11-diaza-2(4,2)-pyri-midina-1(1,4),4(1,3)-dibenzenacyclo-dodecaphan-12-one] in this work. For the same molecule, the IC50 [4] was over 10000 nM.
An IC50 [1] of 11 to 100 nM, an IC50 [2] of under 10 nM and an IC50 [3] of under 10 nM were found for `O=C1NCCCCOCc2cc(ccc2N2CCOCC2)Nc2nccc(n2)-c2ccc1c(F)c2` [Example 10, 1^3-fluoro-4^4-morpholin-6-oxa-3,11-diaza-2(4,2)-pyrimidina-1(1,4),4(1,3)-dibenzenacyclododecaphan-12-one] in this work. The IC50 [4] was 11 to 100 nM.
An IC50 [1] of 1000 to 10000 nM, an IC50 [2] of 1000 to 10000 nM and an IC50 [3] of 1000 to 10000 nM were found for `COc1cccc(F)c1COc1ccc2cc1COCCCCNC(=O)c1ccc(c([N+](=O)[O-])c1)-c1ccnc(n1)N2` [Example 171, 4^4-((2-fluoro-6-methoxybenzyl)oxy)-1^2-nitro-6-oxa-3,11-diaza-2(4,2)-pyrimidina-1(1,4),4(1,3)-di-benzenacyclododecaphan-12-one] in this work. It also gave an IC50 [4] of over 10000 nM.
An IC50 [1] of 101 to 1000 nM, an IC50 [2] of 11 to 100 nM and an IC50 [3] of under 10 nM were found for `Nc1cc2ccc1-c1ccnc(n1)Nc1ccc(N3CCCCC3)c(c1)COCCCCNC2=O` [Example 55, 1^2-amino-4^4-(piperidin-1-)-6-oxa-3,11-diaza-2(4,2)-pyrimidina-1(1,4),4(1,3)-dibenzenacyclododecaphan-12-one] in this work. The IC50 [4] was 101 to 1000 nM.
An IC50 [1] of 1000 to 10000 nM, an IC50 [2] of 1000 to 10000 nM and an IC50 [3] of 101 to 1000 nM were found for `O=C1NCCCCOCc2cc(ccc2N2CCOCC2)Nc2nccc(n2)-c2ccc1cc2[N+](=O)[O-]` [Example 24, 1^2-nitro-4^4-morpholin-6-oxa-3,11-di-aza-2(4,2)-pyrimidina-1(1,4),4(1,3)-dibenzenacyclododecaphan-12-one] in this work. The IC50 [4] was 1000 to 10000 nM.
An IC50 [1] of 1000 to 10000 nM, an IC50 [2] of 1000 to 10000 nM and an IC50 [3] of 101 to 1000 nM were found for `O=C1NCCCCOCc2cc(cc(N3CCOCC3)c2)Nc2ncc(Cl)c(n2)-c2ccc1cc2F` [Example 25] in this work. For the same molecule, the IC50 [4] was 1000 to 10000 nM.
An IC50 [1] of 101 to 1000 nM, an IC50 [2] of 101 to 1000 nM and an IC50 [3] of 11 to 100 nM were found for `Nc1cc2ccc1-c1ccnc(n1)Nc1ccc(OCC3CCOC3)c(c1)COc1ccc(cc1)NC2=O` (stereo not shown) [Example 211, 1^2-amino-4^4-((tetrahydrofuran-3-yl)methoxy)-6-oxa-3,8-diaza-2(4,2)-py-rimidina-1,7(1,4),4(1,3)-tribenzena-cyclononaphane-9-one] in this work. For the same molecule, the IC50 [4] was 1000 to 10000 nM.
An IC50 [1] of 1000 to 10000 nM, an IC50 [2] of 1000 to 10000 nM and an IC50 [3] of 1000 to 10000 nM were found for `O=C1NCCCCOCc2cc(ccc2N2CCOCC2)Nc2nccc(n2)-c2ccc1cc2C(F)(F)F` [Example 19, 4^4-morpholin-1^2-trifluoromethyl-6-oxa-3,11-diaza-2(4,2)-pyrimi-dina-1(1,4),4(1,3)-dibenzenacyclododecaphan-12-one] in this work. The IC50 [4] was over 10000 nM.
An IC50 [1] of 1000 to 10000 nM, an IC50 [2] of 1000 to 10000 nM and an IC50 [3] of 101 to 1000 nM were found for `CC1CCNC(=O)c2ccc(c([N+](=O)[O-])c2)-c2ccnc(n2)Nc2ccc(Oc3cccnc3)c(c2)COC1` (stereo not shown) [Example 129, 8-methyl-1^2-nitro-4^4-(pyridin-3-ox-yl)-6-oxa-3,11-diaza-2(4,2)-pyrimi-dina-1(1,4),4(1,3)-dibenzenacyclo-dodecaphan-12-one] in this work. It also gave an IC50 [4] of over 10000 nM.
An IC50 [1] of 1000 to 10000 nM, an IC50 [2] of 1000 to 10000 nM and an IC50 [3] of 101 to 1000 nM were found for `CC1CCOCc2cc(ccc2OCC2CCOC2)Nc2nccc(n2)-c2ccc(cc2[N+](=O)[O-])C(=O)NC1` (stereo not shown) [Example 166, 9-methyl-1^2-nitro-4^4-((tetrahydro-furan-3-yl)methoxy)-6-oxa-3,11-di-aza-2(4,2)-pyrimidina-1(1,4),4(1,3)-dibenzenacyclododecaphan-12-one] in this work. The IC50 [4] was over 10000 nM.
An IC50 [1] of 101 to 1000 nM, an IC50 [2] of 11 to 100 nM and an IC50 [3] of 11 to 100 nM were found for `O=C1NCCCCOCc2cc(ccc2N2CCOCC2)Nc2ncc(Cl)c(n2)-c2ccc1cc2F` [Example 14, 2^5-chloro-1^2-fluoro-4^4-morpholin-6-oxa-3,11-diaza-2(4,2)-pyrimidina-1-(1,4),4(1,3)-dibenzenacyclododeca-phan-12-one] in this work. It also gave an IC50 [4] of 101 to 1000 nM.
